Calls of active or inactive are those of the source. The rule behind the calls is not given here.
Target: Chaperone protein DnaK (Escherichia coli (strain K12)) (UniProt P0A6Y8)
Assay: E. coli DnaK SBD ligand binding – biophysical, NMR, chaperone (AID 1033)
Conditions: Purified DnaK SBD

Chaperone protein DnaK (Escherichia coli (strain K12)), sequence (P0A6Y8 whole entry, looked up): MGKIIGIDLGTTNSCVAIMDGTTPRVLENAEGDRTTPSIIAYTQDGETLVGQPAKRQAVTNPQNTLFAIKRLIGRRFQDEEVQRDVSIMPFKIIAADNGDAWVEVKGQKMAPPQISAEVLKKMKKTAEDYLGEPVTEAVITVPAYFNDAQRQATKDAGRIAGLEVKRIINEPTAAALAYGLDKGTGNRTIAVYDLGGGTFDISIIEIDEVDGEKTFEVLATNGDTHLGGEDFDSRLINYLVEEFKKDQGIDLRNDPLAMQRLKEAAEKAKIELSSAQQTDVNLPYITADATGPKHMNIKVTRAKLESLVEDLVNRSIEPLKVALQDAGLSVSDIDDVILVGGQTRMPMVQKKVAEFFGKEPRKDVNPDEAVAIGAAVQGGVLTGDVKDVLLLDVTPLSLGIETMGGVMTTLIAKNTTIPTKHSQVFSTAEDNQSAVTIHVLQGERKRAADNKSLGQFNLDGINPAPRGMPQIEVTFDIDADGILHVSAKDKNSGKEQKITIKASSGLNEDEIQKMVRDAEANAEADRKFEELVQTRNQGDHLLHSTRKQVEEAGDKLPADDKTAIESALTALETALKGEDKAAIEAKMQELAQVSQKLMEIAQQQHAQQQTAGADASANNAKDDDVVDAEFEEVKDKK

Row | SMILES | Kd
1 | COc1cc(S(=O)(=O)Nc2cccnc2)ccc1F | > 4 mM (inactive)
2 | N#CCCn1c(=O)oc2ccccc21 | > 4 mM (inactive)
3 | COc1cc(C/C=C/c2ccccc2)c(OC)cc1O | > 4 mM (inactive)
4 | O=C1NC(=O)C2C3C=CC(O3)C12 (stereo unspecified) | > 4 mM (inactive)
5 | CCCCn1c(S(=O)(=O)O)nc2ccccc21 | > 4 mM (inactive)
6 | CC(=O)O[C@H]1C[C@@H](OC(C)=O)C(C)(C)C2CC(=O)[C@]3(C)C(CC[C@@]4(C)[C@H](c5ccoc5)OC(=O)[C@H]5O[C@]543)[C@]21C (stereo partly specified) | > 4 mM (inactive)
7 | CC(=O)Nc1ccc(NC(=O)c2ccncc2)cc1 | > 4 mM (inactive)
8 | C/C=C(\C)c1nnc(NC(=O)C(C)C)s1 | > 4 mM (inactive)
9 | c1ccc2[nH]c(CCn3cncn3)nc2c1 | > 4 mM (inactive)
10 | Cc1cccc(C)c1N1C(=O)CCC1=O | > 4 mM (inactive)
11 | Cc1nnc(SCc2ccc(F)cc2)s1 | > 4 mM (inactive)
12 | CN1CCN(C(=O)c2cc(-c3ccccc3)on2)CC1 | > 4 mM (inactive)
13 | Cc1cc(C)n(C/C=C/Cn2nc(C)cc2C)n1 | > 4 mM (inactive)
14 | CC(=O)Nc1cccc(-c2nc3ccccc3c(=O)o2)c1 | > 4 mM (inactive)
15 | Cc1nc(CC(=O)O)c(-c2ccccc2)s1 | > 4 mM (inactive)
16 | Cc1noc(C)c1C(=O)Nc1cccnc1 | > 4 mM (inactive)
17 | Nc1cc2ccccc2cn1 | > 4 mM (inactive)
18 | O=C1NC(=S)NC(=O)C1=Cc1ccccc1O | > 4 mM (inactive)
19 | CCOc1ccc(C(=O)c2ccc(OC)c(O)c2O)cc1 | > 4 mM (inactive)
20 | CCOCC(=O)N1CCc2ccccc21 | > 4 mM (inactive)
21 | Nc1[nH]c(=S)[nH]c(=O)c1-c1ccccc1 | > 4 mM (inactive)
22 | O=C1NC(=Nc2ccccc2)S/C1=C/c1cccnc1 | > 4 mM (inactive)

Row | SMILES | Kd
23 | CCCn1c(C)cc(=O)[nH]c1=O | > 4 mM (inactive)
24 | CC(=O)O[C@]1(C)CC[C@@]23CC1C(C)(C)[C@@H]2CC[C@H]3C | > 4 mM (inactive)
25 | CC(=O)NC12CC3CC(C)(C1)CC(NC(C)=O)(C3)C2 | > 4 mM (inactive)
26 | O=C1CN(C(=O)c2ccccc2)c2ccccc2N1 | > 4 mM (inactive)
27 | O=C(NC1=NCCS1)c1cccc(F)c1 | > 4 mM (inactive)
28 | CCc1ccccc1NC(=O)c1cnccn1 | > 4 mM (inactive)
29 | O=C(Nc1ccc(-c2nnco2)cc1)c1ccccc1 | > 4 mM (inactive)
30 | CCn1ncc(Cl)c1C(=O)Nc1ccncc1 | > 4 mM (inactive)
31 | COc1ccc2c(c1OC)C(=O)OC2[C@H]1c2c(cc3c(c2OC)OCO3)CCN1C (stereo partly specified) | > 4 mM (inactive)
32 | COc1ccc(NS(=O)(=O)c2ccc(N)cc2)nn1 | > 4 mM (inactive)
33 | COC(=O)c1cnccc1C(F)(F)F | > 4 mM (inactive)
34 | CS(C)=C1C(=O)NC(=O)N(c2ccccc2)C1=O | > 4 mM (inactive)
35 | O=C(O)/C=C/C(=O)Nc1ccccc1C(F)(F)F | > 4 mM (inactive)
36 | Cc1c(-c2ccc(F)cc2)[n+](=O)c2c(n1[O-])CCC2 | > 4 mM (inactive)
37 | Nc1ncc2[nH]cnc2n1 | > 4 mM (inactive)
38 | Cc1cc2cc3c(C)cc(=O)oc3c(C)c2o1 | > 4 mM (inactive)
39 | O=C(O)C1CC(=O)N(C2Cc3ccccc3C2)C1 (stereo unspecified) | > 4 mM (inactive)
40 | COc1cc(C(=S)N2CCCC2)cc(Cl)c1O | > 4 mM (inactive)
41 | NC(=O)C1CCN(Cc2ccccc2)CC1 | > 4 mM (inactive)
42 | O=C(c1cccnc1Cl)N1CCOCC1 | > 4 mM (inactive)
43 | NN1C(=O)CSC1=Nc1ccccc1 | > 4 mM (inactive)
44 | NC(=O)CS(=O)(=O)c1ccc(Cl)cc1 | > 4 mM (inactive)

Row | SMILES | Kd
45 | Nc1cccnc1Oc1ccc(F)cc1F | > 4 mM (inactive)
46 | CC(=O)O[C@H]1CC[C@]2(C)C3CC[C@@]4(C)C(CC5O[C@@]6(CCC(C)CO6)[C@@H](C)C54)C3CC[C@@H]2C1 (stereo partly specified) | > 4 mM (inactive)
47 | Cc1cc(=O)c2c(O)c(C)c(O)cc2o1 | > 4 mM (inactive)
48 | COc1ccc([C@@H](C)C(=O)c2ccc(O)cc2O)cc1 | > 4 mM (inactive)
49 | Cc1nc(-c2ccccc2)ncc1C(=O)O | > 4 mM (inactive)
50 | Cn1c(=O)c2[nH]c(Nc3ccccc3)nc2n(C)c1=O | > 4 mM (inactive)
51 | O=C(Nc1ccon1)c1cc2c(s1)CCCC2 | > 4 mM (inactive)
52 | CCC1C(=O)OCC1Cc1cncn1C (stereo unspecified) | > 4 mM (inactive)
53 | COC(=O)c1sccc1S(=O)(=O)N1CCCC1 | > 4 mM (inactive)
54 | Cc1ccccc1CSc1nnc(C)n1N | > 4 mM (inactive)
55 | Cc1cc(F)c(F)c(C(=O)NC2CC2)c1Cl | > 4 mM (inactive)
56 | CCc1c(C(=O)N2CCOCC2)csc1C | > 4 mM (inactive)
57 | Cc1cc2ncc(C(=O)Nc3ccccc3)c(C)n2n1 | > 4 mM (inactive)
58 | CCn1c(-c2c[nH]c3ccccc23)n[nH]c1=S | > 4 mM (inactive)
59 | CC[C@H](/C=C/C(C)C1CCC2C3CCC4=CC(=O)CC[C@]4(C)C3CC[C@]12C)C(C)C (stereo partly specified) | > 4 mM (inactive)
60 | COc1cccc(/C=N/N=C2/NC(=O)CS2)c1 | > 4 mM (inactive)
61 | CCNC(=S)N1CCC(C(N)=O)CC1 | > 4 mM (inactive)
62 | Cc1nn(C)c2sc(CO)cc12 | > 4 mM (inactive)
63 | O=C(O)CCc1nc2ccccc2[nH]c1=O | > 4 mM (inactive)
64 | Cc1ccc(CN2CCNC(=O)C2CC(=O)O)o1 (stereo unspecified) | > 4 mM (inactive)
65 | Cc1ccc(SCc2cc(=O)n3[nH]c(C)nc3n2)cc1 | > 4 mM (inactive)
66 | Cc1cc([N+](=O)[O-])cc[n+]1[O-] | > 4 mM (inactive)

Row | SMILES | Kd
67 | Cc1nnsc1C(=O)O | > 4 mM (inactive)
68 | CSc1ccccc1NC(=O)c1c(C)noc1C | > 4 mM (inactive)
69 | c1coc(CNc2ncnc3nc[nH]c23)c1 | > 4 mM (inactive)
70 | Oc1ccccc1-c1nnco1 | > 4 mM (inactive)
71 | CC(=O)Nc1nnc(-c2ccco2)o1 | > 4 mM (inactive)
72 | Cc1nnc(Nc2cccnc2)[nH]c1=O | > 4 mM (inactive)
73 | COc1ccc(C)cc1S(=O)(=O)N1CCCCC1 | > 4 mM (inactive)
74 | CC(=O)c1c(O)cc(O)cc1O | > 4 mM (inactive)
75 | CC(=O)O[C@H]1CCC2(C)C3=C(CCC2C1(C)C)[C@@]1(C)CC[C@@H](C(C)CCC=C(C)C)[C@]1(C)CC3 (stereo partly specified) | > 4 mM (inactive)
76 | O=C(O)Cn1cc(C(=O)c2cccs2)c2ccccc21 | > 4 mM (inactive)
77 | O=C(c1nc2ccccc2s1)N1CCSCC1 | > 4 mM (inactive)
78 | COc1cccc(C(=O)Nc2c(C)n[nH]c2C)c1 | > 4 mM (inactive)
79 | Cc1c(C(=O)NC2=NCCS2)oc2ccccc12 | > 4 mM (inactive)
80 | COc1ccc(C)cc1S(=O)(=O)NC1CCCC1 | > 4 mM (inactive)
81 | Nc1nc(CSc2ncn(-c3ccccc3)n2)cs1 | > 4 mM (inactive)
82 | O=C(O)CNC(=O)c1ccc([N+](=O)[O-])cc1 | > 4 mM (inactive)
83 | COC(=O)c1ccccc1NC(=O)c1cc[n+]([O-])cc1 | > 4 mM (inactive)
84 | Nc1ncnc(NCCO)c1[N+](=O)[O-] | > 4 mM (inactive)
85 | COc1cc(OC)c2c(=O)c(O)c(-c3ccc(OC)c(OC)c3)oc2c1 | > 4 mM (inactive)
86 | NC(=O)CSc1nnc2ccc(-c3ccccn3)nn12 | > 4 mM (inactive)

Source: PubChem BioAssay AID1033 (Sanford-Burnham Center for Chemical Genomics, 2008)
